# Source: US20040122086A1, “Method for the production of anhydrous, pharmaceutical formulations of xanthogenates” (priority 2001, published 2004)
# Columns and labels:
# [1] = system: herpes simplex virus 1 (HSV 1), strain Angelotti; test: Antiviral action of D609 against HSV 1 (cytopathogenic effect) in monkey renal cells; type: cell-based; details: for D609 concentration necessary to reduce the number of the infected cultures by 50%: monkey renal cells (Rita line)
# Experimental: Monkey renal cells (Rita line) were infected in Linbro plates with 20 plaque-forming units of herpes simplex virus 1 (HSV 1), strain Angelotti. After 15 min, fresh cell culture medium (adjusted to pH 6.8 by reduction of the amount of sodium bicarbonate to 0.85 g/l and addition of 1 ml of 1 N HCl) which contained either 0, 5, 10, 15, 20, 25 or 30 μg/ml of D609 was added. All batches were carried out in quadruplicate. At the same time, cultures containing D609 and a fourfold concentration of cholesterol or containing cholesterol alone were treated. After 5 days, the monkey renal cells were lyzed in all untreated cultures by means of the cytopathogenic effect (cpe). After a further three days, the number of the cultures with cpe was determined for each D609 concentration. As can be inferred from FIG. 2, the number of cultures with cpe decreases with increasing D609 dose. The antiviral action of D609 was increased by cholesterol. While without cholesterol 25 μg/ml of D609 were necessary in order to reduce the number of the infected cultures by 50%, in the presence of cholesterol only 10 μg/ml of D609 were necessary. Cholesterol alone had no effect on the replication of HSV. Up to the highest concentration (120 μg/ml), all cultures were lyzed by HSV 1.
# [2] = Stability of D609 in aqueous solution (pH increase as measure of decomposition); type: physicochemical; details: 1 mg/ml D609 in distilled water, 37° C.
# Experimental: D609 was dissolved in distilled water in a concentration of 1 mg/ml. 100 ml of this solution in each case were filled into a 200 ml Erlenmeyer flask. One of two solutions was treated with 1 g of cholesterol. Both solutions were incubated at 37° C. The pH of the solutions was determined at regular intervals. D609 decomposes in the presence of water to give tricyclodecanol, carbon disulfide and KOH. The pH of the solution increases with the formation of KOH. The increase in the pH is therefore a measure of the decomposition of D609.
# [3] = Tolerability of D609 / xanthates in ointments (background); details: ointment
# herpes simplex virus 1 = test: Antiviral use of D609 ointment in animal experiments (background); type: in vivo
# [4] = system: hairless mice (strain Swiss CD3, Nu/Nu); details: mouse, in vivo
# Experimental: (§1) D609 was mixed in a mortar together with the same proportion by weight of potassium salt of decanoic acid and two parts by weight of phosphatidylcholine or two or four parts by weight of cholesterol. After this, sufficient highly liquid paraffin oil and petroleum jelly (1 part by weight of paraffin oil, 4 parts by weight of petroleum jelly) were added such that in each case a concentration of 1.25; 2.5; 5.0; or 10% of D609 was achieved. In the same manner, D609-containing ointments without phosphatidylcholine or cholesterol were prepared.
# (§2) 100 mg of ointment were applied twice in the neck region to 10 hairless mice each (strain Swiss CD3, Nu/Nu) at an interval of four hours. 12 hours after the last application, the degree of irritation was read off. The irritation was assessed according to the following scheme: slight erythema 0.5; severe erythema 1.0; ulceration 2.0.
# [5] = system: hairless mice (strain Swiss CD3, Nu/Nu); test: Irritating action of D609 ointments on hairless mice; details: for number of animals with slight erythema: 10 mice per group
# Experimental: as §1, §2
# [6] = ointments with 4 parts by weight of cholesterol, 10% D609
# [7] = ointments with two parts by weight of cholesterol (plus same weight of potassium salt of decanoic acid)
Compound,"effect on the replication of HSV ([1]; cholesterol alone, up to the highest concentration (120 μg/ml), all cultures were lyzed)","D609 concentration necessary to reduce the number of the infected cultures by 50% ([1]; in the presence of a fourfold concentration of cholesterol, pH 6.8) [µg/mL]","factor by which antiviral action of D609 is improved by cholesterol ([1]; pH 6.8, with versus without cholesterol)","D609 concentration necessary to reduce the number of the infected cultures by 50% ([1]; without cholesterol, pH 6.8, cpe read after 8 days) [µg/mL]","pH increase and thus decomposition ([2]; 100 ml treated with 1 g of cholesterol, after 72 hours)",time within which marked decomposition is seen ([2]; without cholesterol) [h],maximum tolerable concentration in ointments [3] [%],concentration needed in an ointment for effective antiviral use (herpes simplex virus 1),tolerability [4],"degree of irritation ([5]; 2.5% D609 in pure petroleum jelly ointment without phosphatidylcholine or cholesterol, 100 mg applied twice, read 12 hours after last application)","degree of irritation ([5]; 5% D609 in pure petroleum jelly ointment without phosphatidylcholine or cholesterol, 100 mg applied twice, read 12 hours after last application)","number of animals with slight erythema ([5]; ointments containing four parts by weight of phosphatidylcholine, 5% D609)","number of animals with slight erythema ([5]; ointments containing four parts by weight of phosphatidylcholine, 10% D609)","degree of irritation [5, 6]","number of animals with slight erythema [5, 6]","D609 concentration at which a significant irritation occurred [5, 7] [%]","degree of irritation [5, 7]"
"CC(C)CCC[C@@H](C)[C@H]1CC[C@H]2[C@@H]3CC=C4C[C@@H](O)CC[C@]4(C)[C@H]3CC[C@]12C [Cholesterol, cholesterol]",no effect,–,–,–,–,–,–,–,–,–,–,–,–,–,–,–,–
"S=C(S)OC1CC2CC1C1CCCC21 (centres unmarked) [D609, tricyclodecan-9-yl xanthate]",–,10,> 2.5,25,only a small pH increase,≤ 6,1,at least 2.5%,marked improvement in the tolerability,marked irritation,very strongly pronounced,one,five,almost free of irritant action,one,10,marked decrease in the symptoms
